Measured values taken from US12655116B2, “Substituted isophthalic acid diamides” (Bayer Aktiengesellschaft, priority 2020, dated 2026).

Key:
ECHCG [1] = test: Post-emergence herbicidal action against ECHCG; assay type: in vivo, Echinochloa crus-galli
In short: (§1)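 Weeds in sandy loam soil received a post-emergence spray at the one-leaf stage. Compounds were applied as WP or EC in water, 600 to 800 l/ha, with 0.2% wetting agent. Activity in % was judged visually after roughly 3 weeks against untreated plants.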

VIOTR [2] = test: Post-emergence herbicidal action against VIOTR; assay type: in vivo, Viola tricolor
In short: as §1

VERPE [3] = test: Post-emergence herbicidal action against VERPE; assay type: in vivo, Veronica persica; conditions: 20 g/ha
In short: as §1

ECHCG [4] = test: Pre-emergence herbicidal action against ECHCG; assay type: in vivo, Echinochloa crus-galli; conditions: 80 g/ha
In short: (§2)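 Visual rating at 3 weeks vs untreated pots; 0–100% scale, 100% = plants died. Treatment: aqueous WP/EC spray onto covering soil, 600–800 l/ha, 0.2% wetter, seeds in sandy loam.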

PHBPU [5] = test: Pre-emergence herbicidal action against PHBPU; assay type: in vivo, Pharbitis purpurea; conditions: dosage 80 g/ha
In short: as §2

SETVI [6] = test: Pre-emergence herbicidal action against SETVI; assay type: in vivo, Setaria viridis
In short: as §2

MATIN [7] = test: Pre-emergence herbicidal action against MATIN; assay type: in vivo, Matricaria inodora
In short: as §2

ALOMY [8] = test: Pre-emergence herbicidal action against ALOMY; assay type: in vivo, Alopecurus myosuroides
In short: as §2

DIGSA [9] = test: Post-emergence herbicidal action against DIGSA; assay type: in vivo, Digitaria sanguinalis; conditions: 20 g/ha
In short: as §1

AVEFA = test: Pre-emergence herbicidal action against AVEFA; assay type: in vivo, Avena fatua
In short: as §2

AMARE [10] = test: Pre-emergence herbicidal action against AMARE; assay type: in vivo, Amaranthus retroflexus
In short: as §2

PHBPU [11] = test: Post-emergence herbicidal action against PHBPU; assay type: in vivo, Pharbitis purpurea
In short: as §1

AMARE [12] = test: Post-emergence herbicidal action against AMARE; assay type: in vivo, Amaranthus retroflexus; conditions: 20 g/ha, visual assessment about 3 weeks after treatment, 100% = plants have died, 0% = like control plants
In short: as §1

SETVI [13] = test: Post-emergence herbicidal action against SETVI; assay type: in vivo, Setaria viridis
In short: as §1

VIOTR [14] = test: Pre-emergence herbicidal action against VIOTR; assay type: in vivo, Viola tricolor
In short: as §2

ABUTH = test: Pre-emergence herbicidal action against ABUTH; assay type: in vivo, Abutilon theophrasti
In short: as §2

LOLRI = test: Pre-emergence herbicidal action against LOLRI; assay type: in vivo, Lolium rigidum; conditions: 80 g/ha
Excerpt: Seeds of monocotyledonous and dicotyledonous weed plants and crop plants are laid out in sandy loam soil in wood-fiber pots and covered with soil. The compounds of the invention, formulated in the form of wettable powders (WP) or as emulsion concentrates (EC), are then applied to the surface of the covering soil in the form of an aqueous suspension or emulsion at a water application rate equivalent to 600 to 800 l/ha, with addition of 0.2% wetting agent. After the treatment, the pots are placed in a greenhouse and kept under good growth conditions for the trial plants. The damage to the test plants is scored visually after a test period of 3 weeks by comparison with untreated controls (herbicidal activity in percent (%): 100% activity=the plants have died, 0% activity=like control plants). […] The tables below illustrate, in an illustrative manner, the post-emergence herbicidal action of the compounds of the invention, the herbicidal activity being stated in percent.

DIGSA [15] = test: Pre-emergence herbicidal action against DIGSA; assay type: in vivo, Digitaria sanguinalis
In short: as §2

VERPE [16] = test: Pre-emergence herbicidal action against VERPE; assay type: in vivo, Veronica persica; conditions: Veronica persica, 504 h, dosage 80 g/ha
In short: as §2

ALOMY [17] = test: Post-emergence herbicidal action against ALOMY; assay type: in vivo, Alopecurus myosuroides; conditions: Alopecurus myosuroides, 504 h, visual assessment about 3 weeks after treatment vs untreated controls
In short: as §1

MATIN [18] = test: Post-emergence herbicidal action against MATIN; assay type: in vivo, Matricaria inodora; conditions: Tripleurospermum inodorum, 504 h, dosage 20 g/ha
In short: as §1

[19] = 20 g/ha, scored visually after 3 weeks, 100% = plants have died, 0% = like control plants
[20] = 80 g/ha, scored visually after 3 weeks vs untreated controls (100% = plants have died, 0% = like control plants)

Cn1nnnc1NC(=O)c1ccc(C(F)(F)F)c(C(=O)NCC(F)F)c1Cl [Example 1-134]
80%: Post-emergence action against VERPE in % (VERPE [3]) | Pre-emergence action against PHBPU in % (PHBPU [5]) | Pre-emergence action against ALOMY (ALOMY [8]; [19]) | Pre-emergence action against AVEFA (AVEFA; [19]) | Post-emergence action against PHBPU in % (PHBPU [11]; dosage 5 g/ha) | Pre-emergence action against LOLRI in % (LOLRI)
90%: Post-emergence action against ECHCG in % (ECHCG [1]; dosage 20 g/ha) | Post-emergence action against VIOTR in % (VIOTR [2]; 5 g/ha) | Post-emergence action against VIOTR in % (VIOTR [2]; 20 g/ha) | Pre-emergence action against SETVI in % (SETVI [6]; dosage 20 g/ha) | Pre-emergence action against MATIN in % (MATIN [7]; dosage 20 g/ha) | Post-emergence action against DIGSA (DIGSA [9]) | Pre-emergence action against AVEFA in % (AVEFA; 80 g/ha, pre-emergence) | Post-emergence action against PHBPU in % (PHBPU [11]; dosage 20 g/ha) | Post-emergence action at 20 g/ha against AMARE in % (AMARE [12]) | Post-emergence action against SETVI in % (SETVI [13]; dosage 5 g/ha) | Post-emergence action against SETVI in % (SETVI [13]; dosage 20 g/ha) | Pre-emergence action against VIOTR in % (VIOTR [14]; dosage 20 g/ha) | Pre-emergence action against ABUTH (herbicidal activity) (ABUTH; [20]) | Pre-emergence action against DIGSA in % (DIGSA [15]; dosage 20 g/ha)
100%: Pre-emergence action against ECHCG in % (ECHCG [4]) | Pre-emergence action against SETVI in % (SETVI [6]; dosage 80 g/ha) | Pre-emergence action against MATIN in % (MATIN [7]; dosage 80 g/ha) | Pre-emergence action against ALOMY (herbicidal activity) (ALOMY [8]; 80 g/ha, pre-emergence, scored visually after 3 weeks vs untreated controls (100% = plants have died, 0% = like control plants)) | Pre-emergence action against AMARE in % (AMARE [10]; 20 g/ha, scored visually after 3 weeks vs untreated controls, 100% = plants have died, 0% = like control plants) | Pre-emergence action against AMARE in % (AMARE [10]; [20]) | Pre-emergence action against VIOTR in % (VIOTR [14]; dosage 80 g/ha) | Pre-emergence action against DIGSA in % (DIGSA [15]; dosage 80 g/ha)

CCCNC(=O)c1c(C(F)(F)F)ccc(C(=O)Nc2nnnn2C)c1Cl [Example 1-136]
90%: pest or weed control at 20 g/ha (ECHCG [1]; Echinochloa crus-galli, 504 h, dosage 20 g/ha) | pest or weed control at 80 g/ha (VERPE [16]) | pest or weed control at 80 g/ha (ECHCG [4]; Echinochloa crus-galli, 504 h) | pest or weed control at 20 g/ha (MATIN [7]; Tripleurospermum inodorum, 504 h, dosage 20 g/ha) | pest or weed control at 80 g/ha (ALOMY [8]; Alopecurus myosuroides, 504 h, 80 g/ha, pre-emergence, scored visually after 3 weeks vs untreated controls (100% = plants have died, 0% = like control plants)) | pest or weed control at 20 g/ha (AMARE [12]; Amaranthus retroflexus, 504 h) | pest or weed control at 20 g/ha (VIOTR [14]; Viola tricolor, 504 h, dosage 20 g/ha) | pest or weed control at 20 g/ha (ABUTH; Abutilon theophrasti, 504 h, dosage 20 g/ha, scored visually after 3 weeks vs untreated controls, 100% = plants have died, 0% = like control plants, read-out: Pre-emergence action against ABUTH (herbicidal activity in percent)) | pest or weed control at 20 g/ha (ALOMY [17]; dosage 20 g/ha) | pest or weed control at 80 g/ha (LOLRI; Lolium rigidum, 504 h)
100%: pest or weed control at 80 g/ha (MATIN [7]; Tripleurospermum inodorum, 504 h, dosage 80 g/ha) | pest or weed control at 20 g/ha (AMARE [10]; Amaranthus retroflexus, 504 h, 20 g/ha, scored visually after 3 weeks vs untreated controls, 100% = plants have died, 0% = like control plants) | pest or weed control at 80 g/ha (AMARE [10]; Amaranthus retroflexus, 504 h, 80 g/ha, scored visually after 3 weeks vs untreated controls, 100% = plants have died, 0% = like control plants) | pest or weed control at 80 g/ha (VIOTR [14]; Viola tricolor, 504 h, dosage 80 g/ha) | pest or weed control at 80 g/ha (ABUTH; Abutilon theophrasti, 504 h, 80 g/ha, scored visually after 3 weeks vs untreated controls (100% = plants have died, 0% = like control plants)) | pest or weed control at 20 g/ha (DIGSA [15]; Digitaria sanguinalis, 504 h, dosage 20 g/ha) | pest or weed control at 80 g/ha (DIGSA [15]; Digitaria sanguinalis, 504 h, dosage 80 g/ha)
80%: pest or weed control at 5 g/ha (ECHCG [1]; Echinochloa crus-galli, 504 h, dosage 5 g/ha) | pest or weed control at 80 g/ha (PHBPU [5]; Ipomoea purpurea, 504 h) | pest or weed control at 80 g/ha (SETVI [6]; Setaria viridis, 504 h, dosage 80 g/ha) | pest or weed control at 80 g/ha (AVEFA; Avena fatua, 504 h, 80 g/ha, pre-emergence) | pest or weed control at 20 g/ha (SETVI [13]; Setaria viridis, 504 h, dosage 20 g/ha) | pest or weed control at 5 g/ha (ALOMY [17]; dosage 5 g/ha) | pest or weed control at 20 g/ha (MATIN [18])
